In PMC6934184, “Selective DNA-PKcs inhibition extends the therapeutic index of localized radiotherapy and chemotherapy” (The Journal of Clinical Investigation, 2019):

Target: T1, CDK5/p25 (Homo sapiens, UniProt Q00535)
T1 construct: purchased Thermo Fisher Scientific (Life Technologies) SelectScreen
Test: SelectScreen Z'LYTE
Assay type: biochemical
Method in brief: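 NU5455 was profiled across the SelectScreen Broad panel of kinase activity and binding assays. Z'LYTE reactions such as CSF1R ran at apparent Km ATP, while the Adapta CAMK1 assay used ATP listed as 10. Values are given as percent.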

T1 sequence (Q00535 whole entry): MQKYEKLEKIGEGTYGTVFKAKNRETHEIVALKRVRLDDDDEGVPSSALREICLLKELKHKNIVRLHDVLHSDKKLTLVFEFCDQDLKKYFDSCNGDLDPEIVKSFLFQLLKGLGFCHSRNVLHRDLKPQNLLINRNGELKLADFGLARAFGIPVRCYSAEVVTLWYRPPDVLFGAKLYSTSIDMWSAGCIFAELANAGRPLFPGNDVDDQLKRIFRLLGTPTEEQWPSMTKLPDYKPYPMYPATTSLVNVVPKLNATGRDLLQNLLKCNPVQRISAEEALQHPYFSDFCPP
T1 sequence (Q15078 99-307 partner limits assumed): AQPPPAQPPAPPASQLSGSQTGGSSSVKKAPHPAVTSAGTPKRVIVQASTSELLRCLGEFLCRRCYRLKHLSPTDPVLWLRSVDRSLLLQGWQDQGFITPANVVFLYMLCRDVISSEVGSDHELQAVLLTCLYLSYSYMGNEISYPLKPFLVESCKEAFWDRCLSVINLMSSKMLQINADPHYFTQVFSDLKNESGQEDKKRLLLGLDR

In the case of `CN(C(=O)CN1CCOCC1)c1ccc2sc3c(-c4cccc5c(=O)cc(N6CC7CCC(C6)O7)oc45)cccc3c2c1` [NU5455], the inhibition at 1 µM is reported as -1.1%.
